The values that follow come from patent US6589970B2, “6-(aryl-amido or aryl-amidomethyl)-naphthalen-2-yloxy-acidic derivatives as inhibitors of plasminogen activator inhibitor type-1 (PAI-1)” (Wyeth, priority 2001, dated 2003).

Series [1] concerns the target T1, recombinant human plasminogen activator inhibitor-1 (PAI-1) (Homo sapiens, UniProt P05121).
T1 construct: purchased Molecular Innovations, Royal Oak, Mich
Put plainly: Primary Screen for the PAI-1 Inhibition. Format: biochemical. The note with it: for inhibition at 100 µM: read-out: % Inhib. 100 μM; for inhibition at 25 µM: read-out: % Inhib. 25 μM. The procedure:
Test compounds are dissolved in DMSO at a final concentration of 10 mM, then diluted 100× in physiologic buffer. The inhibitory assay is initiated by the addition of the test compound (1-100 μM final concentration, maximum DMSO concentration of 0.2%) in a pH 6.6 buffer containing 140 nM recombinant human plasminogen activator inhibitor-1 (PAI-1; Molecular Innovations, Royal Oak, Mich.). Following a 1 hour incubation at room temperature, 70 nM of recombinant human tissue plasminogen activator (tPA) is added, and the combination of the test compound, PAI-1 and tPA is incubated for an additional 30 minutes. Following the second incubation, Spectrozyme-tPA (American Diagnostica, Greenwich, Conn.), a chromogenic substrate for tPA, is added and absorbance read at 405 nm at 0 and 60 minutes. Relative PAI-1 inhibition is equal to the residual tPA activity in the presence of the test compound and PAI-1. Control treatments include the complete inhibition of tPA by PAI-1 at the molar ratio employed (2:1), and the absence of any effect of the test compound on tPA alone.

Where a name gives a salt, the structure may show the parent alone.

T1 sequence (P05121 24-402): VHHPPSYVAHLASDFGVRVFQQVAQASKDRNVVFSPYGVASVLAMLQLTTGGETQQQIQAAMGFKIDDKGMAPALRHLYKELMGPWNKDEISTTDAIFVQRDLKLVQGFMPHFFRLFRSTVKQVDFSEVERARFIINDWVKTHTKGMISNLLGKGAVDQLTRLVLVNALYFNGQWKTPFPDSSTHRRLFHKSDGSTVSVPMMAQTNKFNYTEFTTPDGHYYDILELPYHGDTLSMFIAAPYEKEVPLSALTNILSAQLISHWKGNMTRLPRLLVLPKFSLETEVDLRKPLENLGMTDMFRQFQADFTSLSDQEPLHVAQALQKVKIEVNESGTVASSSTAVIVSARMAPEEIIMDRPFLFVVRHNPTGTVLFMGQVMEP

As usually defined, the melting point is the temperature of the solid-liquid transition. `CCCCc1oc2ccccc2c1C(=O)Nc1ccc2c(Br)c(OCC(=O)O)ccc2c1` (as salt: sodium) [Example 6, {1-Bromo-6-[(2-butyl-benzofuran-3-carbonyl)-amino]-naphthalen-2-yloxy}-acetic acid sodium salt] had a melting point of 284 to 287 °C.

The molecule `CCCCc1oc2ccccc2c1C(=O)NCc1ccc2cc(OCc3nnn[nH]3)ccc2c1` (as salt: sodium) [Example 8, 2-Butyl-benzofuran-3-carboxylic acid [6-(1H-tetrazol-5-ylmethoxy)-naphthalen-2-ylmethyl]-amide sodium salt] returned a melting point of 207 to 210 °C.

On to `CCCCc1oc2ccccc2c1C(=O)NCc1ccc2c(Br)c(OCC(=O)O)ccc2c1` (as salt: sodium) [Example 19, Sodium; (1-bromo-6-{[(2-butyl-benzofuran-3-carbonyl)-amino]-methyl}-naphthalen-2-yloxy)-acetate], for which the melting point amounted to 260 °C.

For `CCCCc1oc2ccccc2c1C(=O)NCc1ccc2c(-c3ccc(OC)cc3)c(OCc3nnn[nH]3)ccc2c1` (as salt: sodium) [Example 25, 2-Butyl-benzofuran-3-carboxylic [5-(4-methoxy phenyl)-6-(1H-tetrazol-5-ylmethoxy)-naphthalen-2-ylmethyl]-amide, sodium salt], the melting point was 147 to 152 °C.

`CCCCc1oc2ccccc2c1C(=O)Nc1ccc2c(Br)c(OCc3nn[nH]n3)ccc2c1` [Example 5, 2-Butyl-benzofuran-3-carboxylic acid [5-bromo-6-(2H-tetrazol-5-ylmethoxy)-naphthalen-2-yl]-amide] had a melting point of 242 to 245 °C. Besides, in series [1] (100 μM test compound), the inhibition at 100 µM was 47%.

In the case of `CCCCc1oc2ccccc2c1C(=O)NCc1ccc2cc(OCC(=O)[O-])ccc2c1.[Na+]` [Example 9, Sodium; (6-{[(2-butyl-benzofuran-3-carbonyl)-amino]-methyl}-naphthalen-2-yloxy)-acetate], the melting point was > 275 °C. In series [1] (25 μM test compound), the inhibition at 25 µM was 28%. Also, in series [1] (100 μM test compound), the inhibition at 100 µM turned out to be 89%.

In the case of `CCCc1c(C(=O)NCc2ccc3c(Br)c(OCc4nnn[nH]4)ccc3c2)cnn1-c1ccccc1` [Example 22, 1-Phenyl-5-propyl-1H-pyrazole-4-carboxylic acid [5-bromo-6-(1H-tetrazol-5-ylmethoxy)-naphthalen-2-ylmethyl]-amide], the melting point lay within 219 to 220 °C. Further, the inhibition at 25 µM in series [1] (25 μM test compound) is 12%. The inhibition at 100 µM in series [1] (100 μM test compound) was found to be 70%.

`CCCCc1oc2ccccc2c1C(=O)NCc1ccc2c(-c3ccc(C)cc3)c(OCc3nnn[nH]3)ccc2c1` [Example 23, 2-Butyl-benzofuran-3-carboxylic acid [6-(1H-tetrazol-5-ylmethoxy)-5-p-tolyl-naphthalen-2-ylmethyl]-amide] came in with a melting point of 162 to 166 °C. Moreover, the inhibition at 100 µM in series [1] (100 μM test compound) came to 48%.

As for `CCCCc1oc2ccccc2c1C(=O)NCc1ccc2c(-c3ccc(C(C)(C)C)cc3)c(OCc3nnn[nH]3)ccc2c1` [Example 27, 2-Butyl-benzofuran-3-carboxylic acid [5-(4-tert-butyl-phenyl)-6-(1H-tetrazol-5-ylmethoxy)-naphthalen-2-ylmethyl]-amide], the melting point was 75 to 78 °C. Also, in series [1] (100 μM test compound), the inhibition at 100 µM was 39%.

As to `CCCCc1c(C(=O)N(C)Cc2ccc3c(Br)c(OCc4nnn[nH]4)ccc3c2)c2ccccc2n1C` [Example 36, 2-Butyl-1-methyl-1H-indole-3-carboxylic acid [5-bromo-6-(1H-tetrazol-5-ylmethoxy)-naphthalen-2-ylmethyl]-methyl-amide], the melting point is 147 to 149 °C. Besides, in series [1] (25 μM test compound), the inhibition at 25 µM is 4%. Also, in series [1] (100 μM test compound), the inhibition at 100 µM was 46%.

On to `CCCCc1c(C(=O)N(C)Cc2ccc3c(Br)c(OCc4nnn[nH]4)ccc3c2)oc2ccccc12` [Example 39, 3-Butyl-benzofuran-2-carboxylic acid [5-bromo-6-(1H-tetrazol-5-ylmethoxy)-naphthalen-2-ylmethyl]-methyl-amide], for which the melting point was 180 to 183 °C. Besides, the inhibition at 25 µM in series [1] (25 μM test compound) is 24%. Moreover, the inhibition at 100 µM in series [1] (100 μM test compound) came out at 69%.

For `Cc1c(C(=O)N(C)Cc2ccc3c(Br)c(OCc4nnn[nH]4)ccc3c2)oc2ccccc12` [Example 41, 3-Methyl-benzofuran-2-carboxylic acid [5-bromo-6-(1H-tetrazol-5-ylmethoxy)-naphthalen-2-ylmethyl]-methyl-amide], the melting point was in the range of 164 to 166 °C. The inhibition at 25 µM in series [1] (25 μM test compound) stood at 49%. The inhibition at 100 µM in series [1] (100 μM test compound) amounted to 91%.

On to `Cc1c(C(=O)NCc2ccc3c(Br)c(OCc4nnn[nH]4)ccc3c2)oc2ccccc12` [Example 43, 3-Methyl-benzofuran-2-carboxylic acid [5-bromo-6-(1H-tetrazol-5-ylmethoxy)-naphthalen-2-ylmethyl]-amide], for which the melting point is 212 to 215 °C. In series [1] (25 μM test compound), the inhibition at 25 µM came out at 47%. The inhibition at 100 µM in series [1] (100 μM test compound) was 71%.

In turn, `Cc1c(C(=O)NCc2ccc3c(Br)c(OC(Cc4ccccc4)C(=O)O)ccc3c2)oc2ccccc12` (centres unmarked) [Example 44, 2-(1-Bromo-6-{[(3-methyl-benzofuran-2-carbonyl)-amino]-methyl}-naphthalen-2-yloxy)-3-phenyl-propionic acid] displayed a melting point of 110 to 113 °C.

`CN(Cc1ccc2c(Br)c(OCc3nnn[nH]3)ccc2c1)C(=O)c1oc2ccccc2c1CCc1ccccc1` [Example 45, 3-Phenethyl-benzofuran-2-carboxylic acid [5-bromo-6-(1H-tetrazol-5-ylmethoxy)-naphthalen-2-ylmethyl]-methyl-amide] gave a melting point of 56 to 59 °C. Besides, in series [1] (100 μM test compound), the inhibition at 100 µM was 17%.

Consider `CN(Cc1ccc2c(Br)c(OC(Cc3ccccc3)C(=O)O)ccc2c1)C(=O)c1oc2ccccc2c1CCc1ccccc1` (centres unmarked) [Example 46, 2-(1-Bromo-6-{[methyl-(3-phenethyl-benzofuran-2-carbonyl)-amino]-methyl}-naphthalen-2-yloxy)-3-phenyl-propionic acid], for which the melting point lay within 87 to 90 °C. In addition, in series [1] (25 μM test compound), the inhibition at 25 µM turned out to be 58%. In series [1] (100 μM test compound), the inhibition at 100 µM is 88%.

On to `CN(Cc1ccc2c(Br)c(OCC(=O)O)ccc2c1)C(=O)c1oc2ccccc2c1CCc1ccccc1` [Example 47, (1-Bromo-6-{[methyl-(3-phenethyl-benzofuran-2-carbonyl)-amino]-methyl}-naphthalen-2-yloxy)-acetic acid], for which the melting point fell in the range of 119 to 122 °C. Further, the inhibition at 25 µM in series [1] (25 μM test compound) was 59%. For the same molecule, in series [1] (100 μM test compound), the inhibition at 100 µM came out at 90%.

Turning to `O=C(O)COc1ccc2cc(NC(=O)C3(c4ccc(Cl)cc4)CCCCC3)ccc2c1` [Example 79, (6-{[1-(4-Chloro-phenyl)-cyclohexanecarbonyl]-amino}-naphathalen-2-yloxy)-acetic acid], the “% Inhib. 25 μM” value in series [1] (25 μM test compound) was 19%. Also, the “% Inhib. 100 μM” value in series [1] (100 μM test compound) was 50%.

Regarding `O=C(O)COc1ccc2cc(NC(=O)C3(c4ccc(Cl)cc4)CCC3)ccc2c1` [Example 80, (6-{[1-(4-Chloro-phenyl)-cyclobutanecarbonyl]-amino}-naphthalen-2-yloxy)-acetic acid], the inhibition at 100 µM in series [1] (100 μM test compound) is 48%.

As to `O=C(O)COc1ccc2cc(CNC(=O)c3cc(-c4ccc(C(F)(F)F)cc4)oc3C(F)(F)F)ccc2c1` [Example 82, [6-({[2-Trifluoromethyl-5-(4-trifluoromethyl-phenyl)-furan-3-carbonyl]-amino}methyl)-naphthalen-2-yloxy]-acetic acid], the inhibition at 25 µM in series [1] (25 μM test compound) is 9%. Further, in series [1] (100 μM test compound), the inhibition at 100 µM stood at 68%.

With `O=C(O)COc1ccc2cc(CNC(=O)c3ccccc3CCc3ccccc3)ccc2c1` [Example 83, {6-[(2-Phenethyl-benzoylamino)-methyl]-naphthalen-2-yloxy}-acetic acid], the inhibition at 100 µM in series [1] (100 μM test compound) is 45%.

Consider `O=C(O)COc1ccc2cc(CNC(=O)C3(c4ccc(Cl)cc4)CCCC3)ccc2c1` [Example 84, [6-({[1-(4-Chloro-phenyl)-cyclopentanecarbonyl]-amino}-methyl)-naphthalen-2-yloxy]-acetic acid], for which the inhibition at 100 µM in series [1] (100 μM test compound) is 34%.

For `O=C(O)COc1ccc2cc(CNC(=O)c3ccc(-c4cccc(C(F)(F)F)c4)o3)ccc2c1` [Example 85, [6-({[5-(3-Trifluoromethyl-phenyl)-furan-2-carbonyl]-amino}-methyl)-naphthalen-2-yloxy]-acetic acid], the inhibition at 100 µM in series [1] (100 μM test compound) was determined as 34%.

As for `CC(C)(C)c1cc(C(=O)NCc2ccc3cc(OCC(=O)O)ccc3c2)cc(C(C)(C)C)c1` [Example 86, {6-[(3,5-Di-tert-butyl-benzoylamino)methyl]-naphthalen-2-yloxy}-acetic acid], the inhibition at 100 µM in series [1] (100 μM test compound) turned out to be 33%.

With `O=C(O)COc1ccc2cc(CNC(=O)C3(c4ccccc4)CCCC3)ccc2c1` [Example 87, (6-{[(1-Phenyl-cyclopentanecarbonyl)-amino]-methyl}-naphthalen-2-yloxy)-acetic acid], in series [1] (100 μM test compound), the inhibition at 100 µM turned out to be 32%.
